# Reference: patent publication US20120083464A1, “NEUROPROTECTIVE PROPERTIES OF 5'-METHYLTHIOADENOSINE” (priority 2009, published 2012)
# Entries after “also recorded” stand apart in the source; their conditions may differ.
# What was measured:
# [1] = tested on: hippocampal neurons after pilocarpine-induced status epilepticus; experiment: Pilocarpine model of temporal lobe epilepsy (status epilepticus), hippocampal histology; type: in vivo, Sprague-Dawley rats; conditions: for quantification of cells in area CA1 at 30 days after SE: preliminary
# Excerpt: We compared two MTA treatment regimens to examine its neuroprotective effect on pilocarpine-induced SE in adult rats. One regimen involved 5 days of MTA treatment beginning beginning 2 days before SE (pre-SE MTA). The other regimen, a more clinically relevant protocol, consisted of MTA treatment for 3 days beginning at the termination of SE (post-SE MTA).
# Young adult (175-200 g), male Sprage-Dawley rats were divided into four MTA treatment groups, 9-11 rats per group. In group A, rats were subjected to pilocarpine-induced status epilepticus (SE). Following 90 minutes of continuous seizure activity, SE was stopped by a single administration of diazepam (10 mg/kg). The rats were injected either with vehicle or MTA once daily for 3 days. Rats were sacrificed at day 4 after SE, and their brains perfusion fixed, frozen and sectioned for histology. In group B, treatment of rats was the same as Group A except that the rats were sacrificed at day 30 after SE. In group C, rats were treated with MTA once daily for two days. On the third day, rats underwent pilocarpine-induced SE. The rats were continuously treated with MTA once daily for 3 more days; controls received placebo The rats were then anesthetized and sacrificed day 4 after SE. In group D, rats were treated the same way as Group C except that the rats were sacrificed on 30 days after SE.
# The sections were subjected to cresyl violet (Nissl) staining and NeuN immunostaining to examine cell loss. Timm staining to identify mossy fiber sprouting was performed on the 30-day survival group.
# caspase 3 activity = experiment: NMDA-mediated increase in caspase 3 activity in mixed neuronal-glial culture; type: cell-based, Sprague-Dawley rat; conditions: NMDA 300 μM, MTA 250 μM or MK-801 10 μM
# Protocol: Primary cultures of brain cortical neurons and glia were essentially prepared as described previously (Bruno et al., 2001, Eur. J. Neurosci., 13:1469-1478). The fronto-lateral cortical lobes were dissected out of Sprague-Dawley embryonic day 17 foetuses and were mechanically dissociated in Hanks' balanced solution. The cortical lobes were triturated by aspirating 7-10 times using a Pasteur pipette with a flame-narrowed tip. […]
# Cortical neurons or mixed cortical neurons and glia were plated on poly-L-lysine-coated 6-well culture plates and after 7 DIV, cells were treated with vehicle or NMDA (300 μM) for different periods of time. […] Extracts were then centrifuged at 5,000×g for 10 min at 4° C., and protein content was determined by using the BCA protein assay according to the manufacturer instructions. Cell extracts (40 μg of protein) were incubated in reaction buffer (25 mM Hepes, 10% sucrose, 0.1% CHAPS, 10 mM DTT) containing 50 μM fluorescence substrate Z-DEVD-AFC at 37° C. for 1 h. Cleavage of the AFC fluorophore was determined in a spectrofluorometer at excitation wavelength of 400 nm and fluorescence was detected at an emission wavelength of 505 nm. Caspase 3 activity was expressed as units of fluorescence/mg of protein/h (Posadas et al., 2009, Pharm. Res., In press).
# PC12 cells = experiment: Neurite differentiation assay in PC12 cells; type: cell-based, rat
# Protocol: The PC12 cells were maintained in HAM's medium at 37° C., supplemented with 2.5% of fetal bovine serum, 15% of horse serum and penicillin/streptomycine. The neurite differentiation assays were conducted using 24-well plates treated with collagen in HAM's medium supplemented with 0.5% of fetal bovine serum and penicillin/streptomycine. NGF (100 ng/ml) or MTA at different concentrations (25 μM, 100 μM and 2 mM) were added to the cultures and, after four days, the percentage of cells with neurites longer than twice cell body. In each experiment a minimum of 300 cells were randomly counted.
# [2] = tested on: oligodendrocytes derived from the optic nerve; experiment: Oligodendrocyte excitotoxicity with AMPA; type: cell-based, Sprague Dawley rats; conditions: MTA 100-300 μM
# Protocol: Primary cultures of oligodendrocytes derived from optic nerves of 12-d-old Sprague Dawley rats were obtained as described previously (Barres et al., 1992). Cells were seeded into 24-well plates bearing 12-mm-diameter coverslips coated with poly-D-lysine (10 μg/ml) at a density of 5×10^3 cells per well. Cells were maintained at 37° C. and 5% CO2 in a chemically defined medium (Barres et al., 1992, Cell 70:31-46). After 2-4 d in vitro, cultures were composed of at least 98% O4/galactocerebroside-positive (O4/Ga1C_) cells; the majority of the remaining cells were stained with antibodies to glial fibrillary acidic protein (GFAP). No A2B5+ or microglial cells were detected in these cultures (Alberdi et al., 2002, Neurobiol Dis 9:234-243).
# Cell toxicity and viability assays were performed as described previously (Sánchez-Gómez and Matute, 1999, Neurobiol Dis 6:475-485). For evaluating the MTA toxicity, cells at 2-4 d in culture were exposed for 24 hours to that drug and cell viability assessed using calcein-AM (Invitrogen). […] Twenty-four hours after drug application, cell viability was assessed using calcein-AM (Invitrogen). The total number of surviving cells on each coverslip emitting calcein fluorescence was counted, and results were expressed as percentage of cell death versus control. Results were expressed as the mean±SEM of at least three independent experiments performed in duplicate. […]
smiles,measurement,setting,value
"CSC[C@H]1O[C@@H](n2cnc3c(N)ncnc32)[C@H](O)[C@@H]1O [MTA, 5′-methylthioadenosine]","hippocampal neuronal loss, qualitative (Nissl stain, NeuN immunohistochemistry)","[1]; MTA started before or after SE, early and late timepoints, dentate hilus, CA1, CA3",qualitatively reduced neuronal loss; also recorded: qualitatively more Nissl-stained cells
same,mossy fiber sprouting (Timm stain),"[1]; late timepoint, either MTA group",No qualitative difference
same,quantification of cells in area CA1 at 30 days after SE,"[1]; post-SE MTA group, p=0.057",trend toward neuroprotection; also recorded: non-significant trend toward increased cell numbers
same,hippocampal NeuN immunoreactivity at 30 days after SE (representative example),"[1]; post-SE MTA, dentate gyrus",only mild cell loss
same,quantification of cells in area CA1 at 30 days after SE,"[1]; pre-SE MTA group, p=0.02",significant neuroprotective effects
same,hippocampal NeuN immunoreactivity at 30 days after SE (representative example),"[1]; pre-SE MTA, dentate gyrus and pyramidal cell layer",good preservation of neurons
same,protection against NMDA-induced caspase 3 activity,caspase 3 activity,blockade of caspase 3 activation; also recorded: protection
same,neurite development at the highest concentration tested,PC12 cells; MTA 5 mM,does not affect neurite development
same,most optimal MTA concentration for formation of new neurites,PC12 cells; four days,1 mM
same,neurite differentiation (formation of new processes),"PC12 cells; four days, concentration dependent",develop new processes
same,protection of oligodendrocytes from excitotoxic insult,[2]; AMPA 10 μM,robust protective activity; also recorded: protects
same,protection of oligodendrocytes from excitotoxic insult,[2]; AMPA 100 μM (necrotic death),no protection; also recorded: does not protect
